Laboratory results from patent US20160347750A1, “DIHYDROPTERIDINONE DERIVATIVES AND USES THEREOF” (Dana-Farber Cancer Institute, Inc., priority 2014, published 2016).
Where two headings read alike, the source gives them in different places.

Tests used:
BRD4.1 [1] = target: T1, BRD4.1 (Homo sapiens, UniProt O60885); settings: read-out: BRD4.1 (IC50)
BRD4.1 [2] = target: T1, BRD4.1; settings: read-out: ITC (Kd); BRD4.1, ITC at 25 C
NOMO1 = experiment: Cell line IC50, NOMO1; format: cell-based
BRDT = BRDT (Homo sapiens, UniProt Q58F21); experiment: BRDT IC50, Table 2; format: binding
BRD4 [3] = target: T2, BRD4 (Homo sapiens, UniProt O60885); experiment: BRD4 IC50, second listed in Table 2; format: binding
797 = experiment: Cellular assay, cell viability by ATPlite, 797 cells; format: cell-based; settings: for IC50: read-out: 797 IC50
BRD4 [4] = target: T2, BRD4; experiment: BRD4 IC50, first listed in Table 2; format: binding; settings: first BRD4 value listed in the cell
TF-1 = experiment: Cell line IC50, TF-1; format: cell-based; settings: TF-1 cell line
MV411 = experiment: Cell line IC50, MV411; format: cell-based
MOLM-13 = experiment: Cell line IC50, MOLM-13; format: cell-based; settings: MOLM-13 cell line
PLK1 = PLK1 (Homo sapiens, UniProt P53350); experiment: PLK1 kinase IC50, Table 2; format: biochemical
Kasumi-1 = experiment: Cell line IC50, Kasumi-1; format: cell-based; settings: Kasumi-1 cell line
AURKA = target: T3, AURKA (Homo sapiens, UniProt O14965); experiment: AURKA kinase IC50, Table 2; format: biochemical
T3 sequence (O14965 1-403): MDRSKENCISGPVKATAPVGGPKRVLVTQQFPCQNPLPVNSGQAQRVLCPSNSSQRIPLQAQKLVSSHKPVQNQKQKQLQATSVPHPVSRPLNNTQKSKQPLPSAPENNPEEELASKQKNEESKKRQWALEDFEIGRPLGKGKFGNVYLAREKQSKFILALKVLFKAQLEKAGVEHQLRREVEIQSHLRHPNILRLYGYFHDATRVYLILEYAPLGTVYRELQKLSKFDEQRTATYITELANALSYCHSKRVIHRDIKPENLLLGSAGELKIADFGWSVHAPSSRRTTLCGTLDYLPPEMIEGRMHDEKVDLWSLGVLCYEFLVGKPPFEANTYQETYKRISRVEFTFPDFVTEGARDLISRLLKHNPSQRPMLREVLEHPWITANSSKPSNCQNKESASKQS

HL60 = experiment: cells; settings: Homo sapiens, HL-60, read-out: HL60 (EC50, M)
[5] = Homo sapiens, NOMO-1, NOMO1 cell line
[6] = second BRD4 value listed in the cell, read-out: BRD4 IC50
[7] = Homo sapiens, NOMO1 (NOMO-1) cell line

Chain of PLK1 (P53350 whole entry): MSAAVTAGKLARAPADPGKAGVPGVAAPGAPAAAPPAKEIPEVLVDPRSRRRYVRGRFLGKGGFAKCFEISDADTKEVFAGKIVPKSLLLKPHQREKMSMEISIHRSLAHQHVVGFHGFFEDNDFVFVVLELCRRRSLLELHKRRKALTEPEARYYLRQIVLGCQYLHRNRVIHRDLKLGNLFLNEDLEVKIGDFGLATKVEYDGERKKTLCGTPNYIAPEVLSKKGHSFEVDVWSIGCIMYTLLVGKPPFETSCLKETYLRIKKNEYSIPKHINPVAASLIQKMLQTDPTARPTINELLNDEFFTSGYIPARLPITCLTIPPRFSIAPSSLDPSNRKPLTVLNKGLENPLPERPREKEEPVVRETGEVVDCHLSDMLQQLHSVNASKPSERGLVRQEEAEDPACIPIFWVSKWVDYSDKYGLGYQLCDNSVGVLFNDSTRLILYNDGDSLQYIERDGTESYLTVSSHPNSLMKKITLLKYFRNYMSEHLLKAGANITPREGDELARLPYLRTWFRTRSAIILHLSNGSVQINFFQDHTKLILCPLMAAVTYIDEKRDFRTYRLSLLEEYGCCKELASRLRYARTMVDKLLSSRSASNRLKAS

SMILES	IC50 (BRDT) [µM]	IC50 (BRD4 [3]; [6]) [µM]	IC50 (BRD4 [4]) [µM]	IC50 (TF-1; Homo sapiens) [µM]	IC50 (MV411; Homo sapiens, MV4-11) [µM]	IC50 (MOLM-13; Homo sapiens) [µM]	IC50 (PLK1) [µM]	IC50 (Kasumi-1; Homo sapiens) [µM]	IC50 (NOMO1; [7]) [µM]	IC50 (797; 797 cell line, Table 2) [µM]	also measured
CC[C@@H]1C(=O)N(C)c2cnc(Nc3ccc(C(=O)N[C@H]4CC[C@H](N5CCN(CC6CC6)CC5)CC4)cc3OC)nc2N1C(C)C	–	–	–	–	–	–	–	–	–	–	IC50 (BRD4.1 [1]): 1.07 µM; Kd (BRD4.1 [2]): 0.255 µM
CC[C@@H]1C(=O)N(C)c2cnc(Oc3ccc(C(=O)NC4CCN(C)CC4)cc3OC)nc2N1C1CCCC1	1.17	0.72	0.415	5.4	0.316	1.59	> 10	1.29	–	0.425	IC50 (NOMO1; [5]): 7.4 µM
CC[C@@H]1C(=O)N(CC)c2cnc(Nc3ccc(C(=O)NC4CCN(C)CC4)cc3OC)nc2N1C1CCCC1	1.33	0.546	0.339	0.806	0.112	0.174	–	0.239	0.232	0.166	–
CC[C@@H]1C(=O)N(C)c2cnc(Nc3ccc(C(=O)NC4CCN(C)CC4)cc3OC3CCOCC3)nc2N1C1CCCC1	0.862	0.228	0.175	–	–	–	0.0576	–	–	0.088	IC50 (NOMO1; NOMO1 (NOMO-1) cell line): 0.491 µM; IC50 (TF-1): 1.16 µM; IC50 (MV411): 0.0746 µM; IC50 (MOLM-13): 0.111 µM; IC50 (Kasumi-1): 0.183 µM
CC[C@@H]1C(=O)N(C)c2cnc(Nc3ccc(C(=O)NC4CCN(C)CC4)cc3)nc2N1C1CCCC1	0.688	–	0.147	–	0.01	0.0085	0.0041	–	0.029	–	IC50 (BRD4 [3]): 0.231 µM; IC50 (AURKA): 9.36 µM; IC50 797: 0.006 µM
CC[C@@H]1C(=O)N(C)c2cnc(N3CCOc4cc(C(=O)NC5CCN(C)CC5)ccc43)nc2N1C1CCCC1	5.37	0.832	1.62	–	0.976	3.49	1.7	–	5.42	1.94	–
COc1cc(C(=O)NC2CCN(C)CC2)ccc1Nc1ncc2c(n1)N(C1CCCC1)[C@H](CC(C)C)C(=O)N2C	24.5	18.8	13.5	–	0.55	0.461	0.078	–	0.775	0.292	–
COc1cc(C(=O)NC2CCN(C)CC2)ccc1Nc1ccc2c(n1)N(C1CCCC1)[C@H](C)C(=O)N2C	0.249	0.1	0.092	–	0.021	0.218	> 10	–	0.529	0.181	–
Cc1sc2c(c1C)C(c1ccc(Cl)cc1)=N[C@@H](CC(=O)OC(C)(C)C)c1nnc(C)n1-2 [JQ1, reference compound]	–	–	–	–	–	–	–	–	–	0.092	IC50 (NOMO1; NOMO1 (NOMO-1) cell line): 0.172 µM; IC50 (TF-1): 0.109 µM; IC50 (MV411): 0.0656 µM; IC50 (MOLM-13): 0.0892 µM; IC50 (Kasumi-1): 0.0488 µM
CC[C@@H]1C(=O)N(C)c2cnc(Nc3ccc(C(=O)NC4CCN(C)CC4)cc3OC)nc2N1C1CCCC1 [drawing 199]	–	–	–	–	–	–	–	–	–	–	EC50 (797; read-out: 797 (EC50, M)): 1.07e-08 M; EC50 (HL60): 3.65e-08 M
CC[C@@H]1C(=O)N(C)c2cnc(Nc3ccc(C(=O)NC4CCN(C)CC4)cc3OC)nc2N1C1CCCC1 [drawing 214]	–	–	–	0.772	0.0054	0.0081	–	0.0099	0.0119	–	IC50 797: 0.005 µM
C[C@@H](Oc1cc(-n2cnc3ccc(CN4CCN(C)CC4)cc32)sc1C(N)=O)c1ccccc1C(F)(F)F [reference compound]	> 50	–	> 50	–	0.0071	–	–	0.0078	–	0.008	TF-1 IC50 (TF-1; result in words): poor convergence

Continued by falling IC50 (BRDT), values first:

IC50 (BRDT) [µM]	IC50 (BRD4 [3]; [6]) [µM]	IC50 (BRD4 [4]) [µM]	IC50 (TF-1; Homo sapiens) [µM]	IC50 (MV411; Homo sapiens, MV4-11) [µM]	IC50 (MOLM-13; Homo sapiens) [µM]	IC50 (PLK1) [µM]	IC50 (Kasumi-1; Homo sapiens) [µM]	IC50 (NOMO1; [7]) [µM]	SMILES	IC50 (797; 797 cell line, Table 2) [µM]	also measured
21.1	6.3	9.17	6.7	0.302	0.341	0.129	1.47	–	CC[C@@H]1C(=O)Nc2cnc(Nc3ccc(C(=O)NC4CCN(C)CC4)cc3OC)nc2N1C1CCCC1	0.42	IC50 (NOMO1; [5]): 3.2 µM
1.05	0.172	0.394	–	0.357	0.828	> 10	–	1.73	CC[C@@H]1C(=O)N(C)c2ccc(N3CCc4cc(C(=O)NC5CCN(C)CC5)ccc43)nc2N1C1CCCC1	0.937	–
0.859	0.188	0.263	–	0.404	0.851	1.87	–	1.83	CC[C@@H]1C(=O)N(C)c2ccc(Nc3ccc(C(=O)NC4CCN(C)CC4)cc3OC)nc2N1C1CCCC1	0.701	–
0.491	0.078	0.112	0.302	0.0712	0.114	0.019	0.0749	0.114	CC[C@@H]1C(=O)N(C)c2cnc(Nc3ccc(C(=O)NC4CCN(C)CC4)cc3OC3CCCC3)nc2N1C1CCCC1	0.095	–
0.469	0.078	0.16	–	0.135	0.333	> 10	–	0.728	C[C@@H]1C(=O)N(C)c2ccc(N3CCc4cc(C(=O)NC5CCN(C)CC5)ccc43)nc2N1C1CCCC1	0.227	–
0.365	0.247	0.13	1.58	0.2	0.351	0.725	0.339	0.771	CC[C@@H]1C(=O)N(C)c2cnc(N(C)c3ccc(C(=O)NC4CCN(C)CC4)cc3OC)nc2N1C1CCCC1	0.342	–
0.213	0.043	0.053	–	0.086	0.137	0.02	–	0.247	CC[C@@H]1C(=O)N(C)c2cnc(N3CCc4cc(C(=O)NC5CCN(C)CC5)ccc43)nc2N1C1CCCC1	0.064	–
